Assay results as given in ChEMBL document CHEMBL1201862, “PubChem BioAssay data set” (2004).
Activity calls are given as the source filed them.

Key:
[1] = molecular target: T1, Zinc finger protein mex-5 (Caenorhabditis elegans, UniProt Q9XUB2); assay: potency of MEX-5 RNA-binding blockers – biochemical, C. elegans, fluorescence polarization, dose response (AID 1960)
T1 sequence (Q9XUB2 whole entry): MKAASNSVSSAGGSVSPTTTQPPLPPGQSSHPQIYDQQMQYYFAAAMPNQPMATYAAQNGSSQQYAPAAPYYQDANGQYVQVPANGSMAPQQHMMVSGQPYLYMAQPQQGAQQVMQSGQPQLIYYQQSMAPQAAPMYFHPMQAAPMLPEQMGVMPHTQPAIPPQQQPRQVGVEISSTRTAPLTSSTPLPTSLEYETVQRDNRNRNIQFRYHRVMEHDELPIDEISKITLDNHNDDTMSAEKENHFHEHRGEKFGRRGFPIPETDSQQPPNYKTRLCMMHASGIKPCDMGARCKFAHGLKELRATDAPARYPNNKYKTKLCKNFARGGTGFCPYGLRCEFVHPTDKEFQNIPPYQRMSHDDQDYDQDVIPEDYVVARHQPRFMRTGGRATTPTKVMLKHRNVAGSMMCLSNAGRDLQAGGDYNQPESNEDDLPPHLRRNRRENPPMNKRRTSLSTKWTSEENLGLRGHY

[2] = molecular target: Photoreceptor-specific nuclear receptor (Homo sapiens, UniProt Q9Y5X4); assay: ligands suppressing NR2E3 nuclear receptor activity – biochemical, TR-FRET, dose response (AID 463256); type: functional
Photoreceptor-specific nuclear receptor, sequence (Q9Y5X4 whole entry, the tested form may be a part): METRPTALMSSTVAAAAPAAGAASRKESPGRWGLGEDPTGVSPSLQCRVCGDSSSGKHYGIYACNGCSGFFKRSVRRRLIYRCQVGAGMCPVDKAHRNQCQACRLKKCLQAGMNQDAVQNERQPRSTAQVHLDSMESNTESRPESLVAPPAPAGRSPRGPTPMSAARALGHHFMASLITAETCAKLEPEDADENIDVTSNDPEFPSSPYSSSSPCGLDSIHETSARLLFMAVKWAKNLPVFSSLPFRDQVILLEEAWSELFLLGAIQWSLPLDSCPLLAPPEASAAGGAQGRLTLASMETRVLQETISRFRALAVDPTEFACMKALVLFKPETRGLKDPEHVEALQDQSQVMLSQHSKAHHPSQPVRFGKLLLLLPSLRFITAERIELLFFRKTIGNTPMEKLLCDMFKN

[3] = molecular target: T2, RNA-binding protein pos-1 (Caenorhabditis elegans, UniProt G5EF15); assay: disruptors of C. elegans POS-1 RNA interaction – biochemical, fluorescence polarization, dose response (AID 1964);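 note: purified POS-1 fused to maltose binding protein made in E. coli; potency of compounds blocking POS-1 binding to fluorescent RNA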
T2 sequence (G5EF15 whole entry): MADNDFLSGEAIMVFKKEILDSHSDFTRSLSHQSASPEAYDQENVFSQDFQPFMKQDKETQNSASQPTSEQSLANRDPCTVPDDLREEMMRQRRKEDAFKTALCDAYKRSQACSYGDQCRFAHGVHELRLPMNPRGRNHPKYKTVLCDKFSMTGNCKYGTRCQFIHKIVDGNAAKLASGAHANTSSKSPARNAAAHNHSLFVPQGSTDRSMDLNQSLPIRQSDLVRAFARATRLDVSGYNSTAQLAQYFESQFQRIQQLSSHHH

[4] = molecular target: Peroxisome proliferator-activated receptor gamma/Nuclear receptor corepressor 2 (Homo sapiens, UniProt P37231+Q9Y618); assay: Counterscreen for NR2E3 inverse agonists: TR-FRET-based biochemical high throughput dose response assay to identify inverse agonists of the interaction between peroxisome proliferator-activated receptor gamma (PPARg) and nuclear receptor co-repressor 2 (NCOR2).; type: functional
[5] = molecular target: Glutathione-S-transferase (Schistosoma japonicum, UniProt Q26513); assay: GST-antibody interaction or FRET quenching – biochemical, TR-FRET, artefact control for Vif-APOBEC3G degradation inhibitor project, dose response (AID 1117362); type: functional
Glutathione-S-transferase, sequence (Q26513 whole entry): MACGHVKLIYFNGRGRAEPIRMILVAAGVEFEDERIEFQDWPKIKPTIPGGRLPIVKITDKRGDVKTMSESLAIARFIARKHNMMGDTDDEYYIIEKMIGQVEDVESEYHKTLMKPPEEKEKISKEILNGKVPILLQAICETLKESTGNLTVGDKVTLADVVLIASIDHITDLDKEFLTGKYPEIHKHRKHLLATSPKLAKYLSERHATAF

[6] = molecular target: Mannose-6-phosphate isomerase (Homo sapiens, UniProt P34949); assay: MPI inhibition at elevated mannose 6-phosphate – biochemical, fluorescence intensity, high mannose 6-phosphate, primary screen (AID 1220)
Mannose-6-phosphate isomerase, sequence (P34949 whole entry): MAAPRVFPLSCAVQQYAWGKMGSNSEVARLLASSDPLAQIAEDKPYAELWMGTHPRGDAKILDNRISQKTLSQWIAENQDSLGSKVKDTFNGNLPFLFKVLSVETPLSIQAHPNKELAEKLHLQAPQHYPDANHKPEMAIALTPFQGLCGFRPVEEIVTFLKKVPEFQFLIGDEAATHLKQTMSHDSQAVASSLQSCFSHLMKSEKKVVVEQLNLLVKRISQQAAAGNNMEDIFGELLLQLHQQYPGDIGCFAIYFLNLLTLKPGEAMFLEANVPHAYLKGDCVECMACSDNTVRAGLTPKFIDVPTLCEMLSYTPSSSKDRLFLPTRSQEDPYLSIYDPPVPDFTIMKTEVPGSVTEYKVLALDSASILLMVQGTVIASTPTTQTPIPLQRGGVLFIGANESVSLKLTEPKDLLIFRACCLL

[7] = viability loss in THP-1 monocytes – THP-1 cells, cytotoxicity control for Vif-APOBEC3G degradation inhibitor project, dose response (AID 1117359); type: functional; conditions: THP-1
[8] = molecular target: T3, Polyadenylate-binding protein 1 (Homo sapiens, UniProt P11940); assay: MLLE domain peptide-binding blockers, IC50 – biochemical, fluorescence polarization, FITC-PAM2 peptide, dose response (AID 602259); type: functional; conditions: read-out: IC50_Mean
T3 sequence (P11940 whole entry, the tested form may be a part): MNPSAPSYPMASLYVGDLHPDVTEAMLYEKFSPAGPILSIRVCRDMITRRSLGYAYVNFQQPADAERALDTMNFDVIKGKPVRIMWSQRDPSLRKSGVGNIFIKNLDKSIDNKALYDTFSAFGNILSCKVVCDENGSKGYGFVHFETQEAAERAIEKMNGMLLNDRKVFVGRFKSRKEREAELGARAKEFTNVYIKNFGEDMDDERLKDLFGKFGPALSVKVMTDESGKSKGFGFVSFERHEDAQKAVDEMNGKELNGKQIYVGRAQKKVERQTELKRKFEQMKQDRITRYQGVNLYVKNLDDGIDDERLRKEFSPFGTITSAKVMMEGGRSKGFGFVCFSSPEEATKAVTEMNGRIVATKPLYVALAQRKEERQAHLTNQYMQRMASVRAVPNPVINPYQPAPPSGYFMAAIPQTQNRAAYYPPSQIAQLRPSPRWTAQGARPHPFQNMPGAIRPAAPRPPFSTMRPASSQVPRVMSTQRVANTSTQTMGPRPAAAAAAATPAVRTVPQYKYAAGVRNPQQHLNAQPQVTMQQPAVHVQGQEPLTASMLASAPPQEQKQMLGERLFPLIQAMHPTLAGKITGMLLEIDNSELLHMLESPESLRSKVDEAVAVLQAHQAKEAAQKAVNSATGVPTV

[9] = molecular target: T4, Histone-lysine N-methyltransferase NSD2 (Homo sapiens, UniProt O96028); type: biochemical
T4 sequence (O96028 whole entry): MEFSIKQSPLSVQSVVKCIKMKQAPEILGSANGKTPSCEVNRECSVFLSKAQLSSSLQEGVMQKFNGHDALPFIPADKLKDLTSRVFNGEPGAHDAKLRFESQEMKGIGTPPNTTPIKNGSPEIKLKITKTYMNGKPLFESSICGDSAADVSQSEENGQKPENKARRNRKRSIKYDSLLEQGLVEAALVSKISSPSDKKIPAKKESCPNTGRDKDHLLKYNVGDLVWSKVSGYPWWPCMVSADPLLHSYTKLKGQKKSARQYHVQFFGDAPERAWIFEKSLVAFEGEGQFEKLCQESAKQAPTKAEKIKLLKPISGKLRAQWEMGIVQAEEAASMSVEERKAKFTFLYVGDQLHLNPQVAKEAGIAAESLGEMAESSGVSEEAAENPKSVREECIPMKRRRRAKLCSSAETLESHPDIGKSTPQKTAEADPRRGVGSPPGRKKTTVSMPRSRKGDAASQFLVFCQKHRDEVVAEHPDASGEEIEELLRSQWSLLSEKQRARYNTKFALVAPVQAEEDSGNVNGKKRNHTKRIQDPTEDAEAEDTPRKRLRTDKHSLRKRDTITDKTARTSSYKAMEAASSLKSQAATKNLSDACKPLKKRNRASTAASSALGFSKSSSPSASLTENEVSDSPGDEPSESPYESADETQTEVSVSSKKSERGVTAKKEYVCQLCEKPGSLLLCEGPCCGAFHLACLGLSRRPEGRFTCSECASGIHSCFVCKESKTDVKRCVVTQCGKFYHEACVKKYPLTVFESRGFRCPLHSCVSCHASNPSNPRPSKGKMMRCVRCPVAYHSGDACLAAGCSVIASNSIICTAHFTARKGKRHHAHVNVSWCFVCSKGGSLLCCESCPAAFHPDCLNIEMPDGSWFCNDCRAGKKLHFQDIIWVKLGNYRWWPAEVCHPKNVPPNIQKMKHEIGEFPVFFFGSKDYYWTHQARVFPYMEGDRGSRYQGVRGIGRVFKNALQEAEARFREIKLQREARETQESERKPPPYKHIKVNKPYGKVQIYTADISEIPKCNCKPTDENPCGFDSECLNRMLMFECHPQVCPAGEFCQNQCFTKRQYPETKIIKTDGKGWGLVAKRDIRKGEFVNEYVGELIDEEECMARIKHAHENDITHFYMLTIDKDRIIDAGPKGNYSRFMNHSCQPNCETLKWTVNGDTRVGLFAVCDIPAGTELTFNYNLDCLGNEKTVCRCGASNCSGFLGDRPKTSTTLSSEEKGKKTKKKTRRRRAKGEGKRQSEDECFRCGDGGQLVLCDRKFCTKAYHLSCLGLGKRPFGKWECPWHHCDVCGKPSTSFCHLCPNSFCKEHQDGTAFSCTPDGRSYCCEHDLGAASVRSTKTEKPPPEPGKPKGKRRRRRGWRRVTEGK

[10] = molecular target: T3, Polyadenylate-binding protein 1; assay: MLLE binding blockers, Cy5 peptide tracer – biochemical, fluorescence polarization, Cy5-PAM2 peptide, secondary, miRNA deadenylation inhibitor project, dose response (AID 602260); type: functional; conditions: read-out: IC50_Mean
Estrogen receptor = Estrogen receptor (Homo sapiens, UniProt P03372); assay: ERα coactivator recruitment enhancers – biochemical, TR-FRET, ERα LBD, dose response (AID 737)
Estrogen receptor, sequence (P03372 whole entry, the tested form may be a part): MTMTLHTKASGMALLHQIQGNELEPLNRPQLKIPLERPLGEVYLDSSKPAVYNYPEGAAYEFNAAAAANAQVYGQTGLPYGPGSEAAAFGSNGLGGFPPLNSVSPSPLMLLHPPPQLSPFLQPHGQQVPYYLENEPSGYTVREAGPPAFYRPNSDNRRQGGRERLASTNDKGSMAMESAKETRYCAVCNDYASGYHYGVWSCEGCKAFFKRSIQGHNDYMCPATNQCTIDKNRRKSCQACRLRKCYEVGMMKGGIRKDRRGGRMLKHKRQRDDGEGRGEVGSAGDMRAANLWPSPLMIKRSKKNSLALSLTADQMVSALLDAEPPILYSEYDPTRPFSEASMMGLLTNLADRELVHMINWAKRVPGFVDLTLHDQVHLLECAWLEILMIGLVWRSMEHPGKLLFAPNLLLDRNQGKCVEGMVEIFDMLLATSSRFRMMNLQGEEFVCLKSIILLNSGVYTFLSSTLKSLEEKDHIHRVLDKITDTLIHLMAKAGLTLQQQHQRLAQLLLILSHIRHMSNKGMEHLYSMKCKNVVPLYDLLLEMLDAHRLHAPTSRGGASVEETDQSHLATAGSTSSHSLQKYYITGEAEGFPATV

Leucine aminopeptidase = Leucine aminopeptidase (Plasmodium falciparum 3D7, UniProt Q8IL11); assay: P. falciparum M17LAP inhibitors, primary screen, biochemical, fluorogenic H-Leu-NHMec substrate, 1536-well (AID 1619); type: functional
Leucine aminopeptidase, sequence (Q8IL11 whole entry): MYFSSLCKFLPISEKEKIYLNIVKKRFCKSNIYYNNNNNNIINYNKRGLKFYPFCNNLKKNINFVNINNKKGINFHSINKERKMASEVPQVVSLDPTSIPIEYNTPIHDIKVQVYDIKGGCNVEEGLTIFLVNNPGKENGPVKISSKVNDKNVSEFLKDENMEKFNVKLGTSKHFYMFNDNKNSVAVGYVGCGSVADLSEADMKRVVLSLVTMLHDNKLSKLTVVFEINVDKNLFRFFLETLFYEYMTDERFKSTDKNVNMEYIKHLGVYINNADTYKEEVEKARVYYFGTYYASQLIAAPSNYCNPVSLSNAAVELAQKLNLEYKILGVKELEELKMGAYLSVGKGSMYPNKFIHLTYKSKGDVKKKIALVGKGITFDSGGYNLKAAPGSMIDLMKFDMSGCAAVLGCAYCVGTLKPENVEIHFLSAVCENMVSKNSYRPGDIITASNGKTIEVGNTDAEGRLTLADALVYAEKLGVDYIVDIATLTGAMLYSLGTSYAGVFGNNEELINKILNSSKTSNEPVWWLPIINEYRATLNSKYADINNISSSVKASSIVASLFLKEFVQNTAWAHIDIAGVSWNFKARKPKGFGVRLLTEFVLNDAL

[11] = Dd2 parasite growth inhibition in erythrocytes – SYBR Green, dry powder samples, set 9, dose response (AID 1159568); type: functional, cell-based
[12] = growth inhibition of yeast DHODH-expressing 3D7 parasites – SYBR Green, dry powder samples, dose response (AID 1159570); type: functional, cell-based;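 note: parasite growth measured after 72 hours of compound exposure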
[13] = Dd2 malaria parasite growth inhibition potency – SYBR Green, dry powder samples, dose response (AID 1159566); type: functional, cell-based;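 note: potency for growth inhibition with lower SYBR green DNA signal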
[14] = P. falciparum Dd2 growth inhibitors, dose response, SYBR Green, cherry-picked samples (AID 1159567); type: functional, cell-based
[15] = growth inhibition of PfATP4-mutant resistant parasites – NITD609-resistant line, SYBR Green, dry powder, dose response (AID 1159571); type: functional, cell-based;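 note: parasites synchronized at ring stage by sorbitol before testing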
[16] = molecular target: T5, Dual specificity protein phosphatase 6 (Rattus norvegicus, UniProt Q64346); assay: inhibition of rat DUSP6 enzyme activity – biochemical, in vitro, primary screen (AID 425)
T5 sequence (Q64346 whole entry): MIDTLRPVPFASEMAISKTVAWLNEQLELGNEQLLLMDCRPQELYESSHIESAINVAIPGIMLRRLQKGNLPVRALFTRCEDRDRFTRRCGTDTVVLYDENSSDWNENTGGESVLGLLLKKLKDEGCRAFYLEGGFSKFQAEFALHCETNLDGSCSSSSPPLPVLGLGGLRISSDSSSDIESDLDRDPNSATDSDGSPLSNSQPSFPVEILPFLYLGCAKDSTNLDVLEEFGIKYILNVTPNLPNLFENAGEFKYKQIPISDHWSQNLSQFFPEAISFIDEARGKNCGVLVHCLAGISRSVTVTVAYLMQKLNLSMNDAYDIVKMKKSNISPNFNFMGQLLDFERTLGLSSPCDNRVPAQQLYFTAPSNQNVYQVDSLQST

[17] = molecular target: Voltage-gated inwardly rectifying potassium channel KCNH2 (Homo sapiens, UniProt Q12809); assay: concentration-dependent hERG rescue from blockers – cell-based, thallium flux, dose response (AID 2121); type: ADME
Voltage-gated inwardly rectifying potassium channel KCNH2, sequence (Q12809 whole entry): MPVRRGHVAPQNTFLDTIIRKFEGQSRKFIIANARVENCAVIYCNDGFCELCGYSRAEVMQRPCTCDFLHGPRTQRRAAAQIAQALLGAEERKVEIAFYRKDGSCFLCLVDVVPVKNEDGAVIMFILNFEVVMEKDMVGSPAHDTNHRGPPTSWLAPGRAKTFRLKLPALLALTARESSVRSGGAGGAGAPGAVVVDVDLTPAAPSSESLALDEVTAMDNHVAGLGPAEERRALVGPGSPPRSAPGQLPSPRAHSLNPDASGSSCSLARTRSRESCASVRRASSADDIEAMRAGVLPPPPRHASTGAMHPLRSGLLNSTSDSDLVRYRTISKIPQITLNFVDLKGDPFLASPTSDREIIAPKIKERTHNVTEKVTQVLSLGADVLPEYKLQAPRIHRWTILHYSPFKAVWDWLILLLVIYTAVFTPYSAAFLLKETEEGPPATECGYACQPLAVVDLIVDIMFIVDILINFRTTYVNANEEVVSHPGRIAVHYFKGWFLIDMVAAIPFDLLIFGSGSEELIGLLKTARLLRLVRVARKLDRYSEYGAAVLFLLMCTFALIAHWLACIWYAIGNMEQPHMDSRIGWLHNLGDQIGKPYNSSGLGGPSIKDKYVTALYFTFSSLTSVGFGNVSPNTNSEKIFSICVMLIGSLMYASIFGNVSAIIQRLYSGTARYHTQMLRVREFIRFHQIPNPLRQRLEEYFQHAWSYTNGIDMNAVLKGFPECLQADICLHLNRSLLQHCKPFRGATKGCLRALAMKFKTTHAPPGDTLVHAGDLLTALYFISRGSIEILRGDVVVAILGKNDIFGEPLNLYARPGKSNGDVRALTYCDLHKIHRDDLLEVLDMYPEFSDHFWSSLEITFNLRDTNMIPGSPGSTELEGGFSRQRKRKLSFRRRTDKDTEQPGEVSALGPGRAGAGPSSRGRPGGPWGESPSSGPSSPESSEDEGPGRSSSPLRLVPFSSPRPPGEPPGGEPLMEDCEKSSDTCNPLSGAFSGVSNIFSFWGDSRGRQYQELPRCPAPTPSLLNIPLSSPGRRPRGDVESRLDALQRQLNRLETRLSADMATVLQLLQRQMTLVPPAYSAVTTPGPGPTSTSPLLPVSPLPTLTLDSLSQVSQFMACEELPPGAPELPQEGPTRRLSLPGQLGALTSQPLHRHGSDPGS

For CC(=O)c1ccc(C(=O)Nc2sc3c(c2C(N)=O)CCN(Cc2ccccc2)C3)cc1, the EC50 [1] was > 300 µM (inconclusive), the IC50 [2] was 6 µM (active) and the EC50 [3] was > 300 µM (not active). For the same molecule, the IC50 [4] was 4.93 µM (active).

For COc1ccc(NC(=O)N2c3ccc(OC)cc3C(C)=CC2(C)C)cc1, the IC50 [5] was > 100 µM (active), the IC50 [6] was > 50 µM (not active) and the CC50 [7] was > 40 µM (active).

For CCn1c(C)cc(=S)c2ccccc21, the EC50 [1] was > 300 µM (not active), the IC50 [8] was > 66 µM (inactive) and the IC50 [5] was > 100 µM (active). For the same molecule, the AC50 [9] was 17 µM (active), the EC50 [3] was > 300 µM (not active) and the IC50 [10] was > 66 µM (inactive). For the same molecule, the CC50 [7] was > 40 µM (active).

With CCSc1nc2c(cnn2-c2ccc(C)cc2)c(=O)[nH]1 the EC50 (Estrogen receptor) was 14.4 µM (active).

With CCc1ccccc1NC(=O)CSc1nnc[nH]1 the IC50 (Leucine aminopeptidase) was 34.4 µM (active).

With N#C[C@@H]1[C@H](c2ccccc2)[C@H](CO)N1C(=O)Nc1cccc(F)c1 the AC50 [11] was 0.968 µM (active).

With COc1cccc(C#Cc2ccc([C@H]3[C@@H](CO)N(C(=O)C4CCC4)[C@H]3C#N)cc2)c1 the AC50 [12] was 1.17 µM (active), the AC50 [13] was 0.636 µM (active) and the AC50 [14] was 1.2 µM (active). The AC50 [15] was 1.41 µM (active).

In the case of CCOc1ccc2nc(Nc3nc4c(c(=O)[nH]3)CCC4)nc(C)c2c1, the IC50 [16] is reported as 36.8 µM (active).

In the case of CCOc1ccccc1NC(=S)NC(=O)c1ccco1, the EC50 [17] is reported as 1.25 µM (active).
